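48-hour exposure; five concentrations; linearly interpolated endpoints. The concentration for 50% growth inhibition is given as GI50.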 Activity calls are given as the source filed them. No stated cut-off is given here; in the data, active = GI50 up to about 1.1 µM and inactive = higher.
How the values were obtained:
Test in all cases: inhibition of tumour cell growth, NCI panel, 48 h
OVCAR-8 = system: OVCAR-8
MOLT-4 = system: MOLT-4
T47D = system: T47D
SF-268 = system: SF-268
SK-MEL-28 = system: SK-MEL-28
SF-295 = system: SF-295
DU-145 = system: DU-145
NCI-H23 = system: NCI-H23
OVCAR-4 = system: OVCAR-4
TK-10 = system: TK-10
NCI-H522 = system: NCI-H522
RPMI-8226 = system: RPMI-8226
CAKI-1 = system: CAKI-1
MDA-N = system: MDA-N
SNB-19 = system: SNB-19
HT-29 = system: HT-29
OVCAR-3 = system: OVCAR-3
HOP-62 = system: HOP-62
Malme-3M = system: Malme-3M
SK-MEL-5 = system: SK-MEL-5
CCRF-CEM = system: CCRF-CEM
786-0 = system: 786-0
HCT-116 = system: HCT-116
SN12C = system: SN12C
ACHN = system: ACHN
UO-31 = system: UO-31
UACC-257 = system: UACC-257
U-251 = system: U-251
LOX IMVI = system: LOX IMVI
SR = system: SR
BT-549 = system: BT-549
HOP-92 = system: HOP-92
SF-539 = system: SF-539
Hs-578T = system: Hs-578T
UACC-62 = system: UACC-62
HCT-15 = system: HCT-15
A549 = system: A549
HCC 2998 = system: HCC 2998
NCI-H460 = system: NCI-H460
OVCAR-5 = system: OVCAR-5
NCI-H226 = system: NCI-H226
MCF7 = system: MCF7
HL-60 = system: HL-60
KM12 = system: KM12
MDA-MB-231 = system: MDA-MB-231
M14 = system: M14
EKVX = system: EKVX
PC-3 = system: PC-3
NCI/ADR-RES = system: NCI/ADR-RES
SW-620 = system: SW-620
MDA-MB-435 = system: MDA-MB-435
SK-MEL-2 = system: SK-MEL-2
A498 = system: A498
RXF 393 = system: RXF 393
IGROV-1 = system: IGROV-1
SK-OV-3 = system: SK-OV-3
COLO 205 = system: COLO 205

CC(C)(C)O/N=C/c1cc(NC(=S)c2ccccc2)ccc1Cl
GI50 (OVCAR-8): 17.9 µM (inactive)
GI50 (MOLT-4): 8.71 µM (inactive)
GI50 (T47D): 18.9 µM (inactive)
GI50 (SF-268): 21.1 µM (inactive)
GI50 (SK-MEL-28): 14 µM (inactive)
GI50 (SF-295): 18 µM (inactive)
GI50 (DU-145): 17.3 µM (inactive)
GI50 (NCI-H23): 15.6 µM (inactive)
GI50 (OVCAR-4): 18.3 µM (inactive)
GI50 (TK-10): 12.2 µM (inactive)
GI50 (NCI-H522): 11.3 µM (inactive)
GI50 (RPMI-8226): 11.5 µM (inactive)
GI50 (CAKI-1): 29.3 µM (inactive)
GI50 (MDA-N): 14.2 µM (inactive)
GI50 (SNB-19): 22.4 µM (inactive)
GI50 (HT-29): 13.7 µM (inactive)
GI50 (OVCAR-3): 16.3 µM (inactive)
GI50 (HOP-62): 13.7 µM (inactive)
GI50 (Malme-3M): 19 µM (inactive)
GI50 (SK-MEL-5): 21 µM (inactive)
GI50 (CCRF-CEM): 23 µM (inactive)
GI50 (786-0): 14.3 µM (inactive)
GI50 (HCT-116): 12.3 µM (inactive)
GI50 (SN12C): 12.2 µM (inactive)
GI50 (ACHN): 16.4 µM (inactive)
GI50 (UO-31): 12.8 µM (inactive)
GI50 (UACC-257): 13.1 µM (inactive)
GI50 (U-251): 17 µM (inactive)
GI50 (LOX IMVI): 15.7 µM (inactive)
GI50 (SR): 15.1 µM (inactive)
GI50 (BT-549): 15.6 µM (inactive)
GI50 (HOP-92): 14.9 µM (inactive)
GI50 (SF-539): 25.7 µM (inactive)
GI50 (Hs-578T): 22.5 µM (inactive)
GI50 (UACC-62): 14.6 µM (inactive)
GI50 (HCT-15): 15.1 µM
GI50 (A549): 15.7 µM (inactive)
GI50 (HCC 2998): 11.3 µM (inactive)
GI50 (NCI-H460): 6.89 µM (inactive)
GI50 (OVCAR-5): 23.8 µM (inactive)
GI50 (NCI-H226): 16.8 µM (inactive)
GI50 (MCF7): 22.9 µM (inactive)
GI50 (HL-60): 16.3 µM (inactive)
GI50 (KM12): 12.7 µM (inactive)
GI50 (MDA-MB-231): 21.3 µM (inactive)
GI50 (M14): 18.6 µM (inactive)
GI50 (EKVX): 15.2 µM (inactive)
GI50 (PC-3): 16.4 µM (inactive)
GI50 (NCI/ADR-RES): 15.6 µM (inactive)
GI50 (SW-620): 18.7 µM (inactive)
GI50 (MDA-MB-435): 27.2 µM (inactive)
GI50 (SK-MEL-2): 16.6 µM (inactive)
GI50 (A498): 13.6 µM (inactive)
GI50 (RXF 393): 12.3 µM (inactive)
GI50 (IGROV-1): 12.1 µM (inactive)
GI50 (SK-OV-3): 29.4 µM (inactive)
GI50 (COLO 205): 14.3 µM (inactive)

Cc1cn(C2CC(O)C(Cn3nncc3Cn3nc(Br)c(=O)[nH]c3=O)O2)c(=O)[nH]c1=O (stereo unspecified)
GI50 (OVCAR-8): > 100 µM (inactive)
GI50 (MOLT-4): > 100 µM (inactive)
GI50 (T47D): > 100 µM (inactive)
GI50 (SF-268): > 100 µM (inactive)
GI50 (SK-MEL-28): > 100 µM (inactive)
GI50 (SF-295): > 100 µM (inactive)
GI50 (DU-145): > 100 µM (inactive)
GI50 (NCI-H23): > 100 µM (inactive)
GI50 (OVCAR-4): > 100 µM (inactive)
GI50 (TK-10): > 100 µM (inactive)
GI50 (NCI-H522): > 100 µM (inactive)
GI50 (RPMI-8226): > 100 µM (inactive)
GI50 (CAKI-1): > 100 µM (inactive)
GI50 (MDA-N): > 100 µM (inactive)
GI50 (SNB-19): > 100 µM (inactive)
GI50 (OVCAR-3): > 100 µM (inactive)
GI50 (HOP-62): > 100 µM (inactive)
GI50 (Malme-3M): > 100 µM (inactive)
GI50 (SK-MEL-5): > 100 µM (inactive)
GI50 (CCRF-CEM): > 100 µM (inactive)
GI50 (786-0): > 100 µM (inactive)
GI50 (HCT-116): > 100 µM (inactive)
GI50 (SN12C): > 100 µM (inactive)
GI50 (ACHN): > 100 µM (inactive)
GI50 (UO-31): > 100 µM (inactive)
GI50 (UACC-257): > 100 µM (inactive)
GI50 (U-251): > 100 µM (inactive)
GI50 (LOX IMVI): > 100 µM (inactive)
GI50 (SR): > 100 µM (inactive)
GI50 (BT-549): > 100 µM (inactive)
GI50 (HOP-92): > 100 µM (inactive)
GI50 (SF-539): > 100 µM (inactive)
GI50 (Hs-578T): > 100 µM (inactive)
GI50 (UACC-62): > 100 µM (inactive)
GI50 (HCT-15): > 100 µM
GI50 (A549): > 100 µM (inactive)
GI50 (HCC 2998): > 100 µM (inactive)
GI50 (OVCAR-5): > 100 µM (inactive)
GI50 (NCI-H226): > 100 µM (inactive)
GI50 (MCF7): > 100 µM (inactive)
GI50 (KM12): > 100 µM (inactive)
GI50 (MDA-MB-231): > 100 µM (inactive)
GI50 (M14): > 100 µM (inactive)
GI50 (EKVX): > 100 µM (inactive)
GI50 (PC-3): > 100 µM (inactive)
GI50 (NCI/ADR-RES): > 100 µM (inactive)
GI50 (SW-620): > 100 µM (inactive)
GI50 (MDA-MB-435): > 100 µM (inactive)
GI50 (SK-MEL-2): > 100 µM (inactive)
GI50 (A498): > 100 µM (inactive)
GI50 (RXF 393): > 100 µM (inactive)
GI50 (IGROV-1): > 100 µM (inactive)
GI50 (SK-OV-3): > 100 µM (inactive)
GI50 (COLO 205): > 100 µM (inactive)

From ChEMBL document CHEMBL1201862, “PubChem BioAssay data set” (2004)
